Data from PMC9557039 (iScience, 2022).

Biological target: UGT720-269-1 (Siraitia grosvenorii, UniProt P0DO66)
Details: 1 mM UDPG, 10 mM MgCl2, 40 °C; crude enzyme in screening assay

Sequence of UGT720-269-1 (P0DO66 whole entry): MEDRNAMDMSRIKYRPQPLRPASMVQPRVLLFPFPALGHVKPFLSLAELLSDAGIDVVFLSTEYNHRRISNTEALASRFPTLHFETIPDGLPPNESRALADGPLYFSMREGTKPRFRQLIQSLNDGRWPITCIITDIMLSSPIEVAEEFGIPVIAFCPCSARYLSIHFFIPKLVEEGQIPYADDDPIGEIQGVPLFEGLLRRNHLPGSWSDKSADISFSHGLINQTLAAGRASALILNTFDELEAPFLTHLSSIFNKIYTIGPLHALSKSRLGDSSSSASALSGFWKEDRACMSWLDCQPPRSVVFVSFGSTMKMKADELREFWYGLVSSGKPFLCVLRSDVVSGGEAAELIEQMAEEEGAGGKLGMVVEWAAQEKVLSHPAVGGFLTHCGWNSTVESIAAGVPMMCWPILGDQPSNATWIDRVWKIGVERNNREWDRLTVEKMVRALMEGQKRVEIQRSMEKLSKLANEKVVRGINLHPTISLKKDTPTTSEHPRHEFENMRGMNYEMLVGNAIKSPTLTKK

Structure (SMILES): C[C@H](CC[C@@H](O)C(C)(C)O)[C@H]1CC[C@@]2(C)[C@@H]3CC=C4[C@@H](CC[C@H](O)C4(C)C)[C@]3(C)[C@H](O)C[C@]12C [mogrol]
- HPLC product analysis: low catalytic property of UGT720-269-1 in the sequential glycosylation of mogrol to IIE
